Test results: patent US11273141B2, “Low-dose carbachol compositions and methods for treatment of night vision disturbance” (VYLUMA INC., priority 2020, dated 2022)
Entries after “also recorded” stand apart in the source; their conditions may differ.

Legend:
[1] = known side effects; cited from earlier work
Dutch Belted Rabbits = assay: Pupillary diameter (pupillometry) after single ocular administration, rabbit eye model; format: in vivo
Experimental: Study design: 3 Dutch Belted Rabbits (pigmented breed)/group received a single ocular administration of test articles (one drop per eye) at 3 concentrations (tested one week apart). After a 2-week rest period, combinations were tested. Ocular Irritation was assessed using a modified Draize test. Intraocular pressure (IOP) was measured at baseline, 1 h, 4 h, 6 h and 24 h. Pupillary Diameter was measured at baseline, 15 min, 1 h, 4 h and 6 h after dosing.
Due to the variation in pupillary diameter and IOP between rabbits and between eyes within rabbits, the data for pupillary diameter and IOP were normalized and presented with error bars (SD). A change of 15% to 20% approximates a pupillary diameter change of 1 mm. In human, a reduction of pupillary diameter of about 2 mm is clinically generally desired.

pupillary muscle = assay: Effect of benzalkonium chloride on the miotic effect of carbachol; format: in vivo; conditions: carbachol 0.025% to 0.075%
Source text: In still further experiments, the inventors investigated the effect of benzalkonium chloride on the miotic effect of carbachol. To that end, different concentrations of BAC were employed between 0.005% and 0.02% at carbachol concentrations between 0.025% and 0.075%, and the results are shown in FIGS. 6A-6C.

human individuals = assay: Miotic response (dose response, eye color) to carbachol formulations in human; format: in vivo
Source text: FIG. 7 is a graph depicting exemplary results for a dose response in human using a carbachol formulation according to the inventive subject matter.
FIG. 8 is a graph depicting exemplary results for miotic response in human individuals of different eye color using a 0.29% carbachol formulation according to the inventive subject matter.
FIG. 9 is a graph depicting exemplary results for miotic response in human individuals of different eye color using a 0.50% carbachol formulation according to the inventive subject matter.
FIG. 10 is a graph depicting exemplary results for miotic response in human individuals of different eye color using a 0.75% carbachol formulation according to the inventive subject matter.
To optimize the concentration of carbachol in the topical ophthalmic formulations, the inventors tested various dosages, and the table below depicts the composition for the carbachol formulations used.
Exemplary results for the miotic effect of carbachol at 0.29%, 0.50%, and 0.75% are depicted in FIG. 7.

[2] = 0.5% and 1%, one drop per eye, rabbit

## CC(=O)OC1CN2CCC1CC2 (stereo not shown) [aceclidine, 1-azabicyclo[2.2.2]octan-3-yl acetate]
[1]
  side effects: increased salivation and bradycardia

## Brc1c(NC2=NCCN2)ccc2nccnc12 [Brimonidine]
Dutch Belted Rabbits; doses tested, concentration not given, rabbit
  effect on pupillary diameter (in words): little to no effect

## N-Alkyl-N-benzyl-N,N-dimethyl-ammonium chloride [BAC]
Pupillary muscle; BAC 0.005%
  effect of BAC on miotic effect of carbachol: minimal effect
Pupillary muscle; BAC 0.01%
  effect of BAC on miotic effect of carbachol: somewhat more pronounced
Pupillary muscle; BAC at least 0.02%
  effect of BAC on miotic effect of carbachol: significant

## CCN(C)C(=O)Oc1cccc([C@H](C)N(C)C)c1 [Rivastigmine]
Dutch Belted Rabbits; 1% alone, rabbit
  decrease in pupillary diameter: 1 mm
  effect on pupillary diameter (in words): very low effects as compared to carbachol; also recorded: performed substantially similar to Phentolamine; also recorded: desirable effect

## COc1ccc2c3c1O[C@H]1C[C@@H](O)C=C[C@@]31CCN(C)C2 [Galantamine]
Dutch Belted Rabbits; 2% (high dose) alone, rabbit
  duration of reduction in pupillary diameter: at least 1 h
Dutch Belted Rabbits; 2% alone, rabbit
  decrease in pupillary diameter: 1-2 mm

## Cc1ccc(N(CC2=NCCN2)c2cccc(O)c2)cc1 [Phentolamine]
Dutch Belted Rabbits; [2]
  decrease in the pupil: approximately 1 mm
  duration of decrease in the pupil: at least 6 h
Dutch Belted Rabbits; all doses, FIG. 1, rabbit
  duration of reduction in pupillary diameter: at least 6 h
  reduction in pupillary diameter (in words): a reduction in pupillary diameter occurred at all doses

## C[N+](C)(C)CCOC(N)=O [Carbachol, carbamoylcholine]
Human individuals; 0.5%, single dose
  duration of miotic efficacy: 3 h
Human individuals; tested formulations
  saturation of dose response: 0.5%
Dutch Belted Rabbits; carbachol doses tested, rabbit
  duration of action: 2 to 4 h
